Data taken from patent US20250129430A1, “HIGH ATP-AFFINITY PROTEIN AS THERAPEUTIC TARGET FOR INTRACTABLE CANCER MOLECULAR SUBTYPES AND INHIBITOR THEREOF” (VeraVerse Co., Ltd., priority 2021, published 2025).
Structures can show the parent of a compound that is named as a salt.

What was measured:
Assay in all cases: Cell viability drug screen, 12-point dose-response AUC
Assay type in all cases: cell-based, human
MKN74 = MKN74 cells; 72 hours
Procedure: (§1) An FDA-approved small-molecule pharmacological compound (#L1300) and an anticancer compound for research (#L2000) were purchased from Selecckchem and a 10 mM solution was prepared in DMSO. A total of 1,345 compounds were tested the cell viability of the seven EMT gastric cancer cell lines.
(§2) Cells cultured for cell-based drug assay were inoculated into a 96-well white optical plate (Corning) at 5×10^3 cells per well. After 24 hours after inoculation, a 2.5 MJT (primary screen) or a half-log 12-serial diluent (secondary screen) of the pharmacological compound contained in DMSO is added to the cells with a robot using a BioMek FXp liquid processor (Beckman) to add to the cells at 50 mM. The final drug concentration in the 5 ns range and the DMSO specification control (0.5%) were calculated. The cells were then further incubated at 37° C. in a 5% CO2 incubator for 72 hours prior to measuring cell viability using the extra-GLO assay kit (Promega). The luminescent properties were measured after 15 min incubation at room temperature using a plate stacker equipped with a plate stacker. The normalized viability for the DMSO-based control was measured to generate a cell line-specific 12-point dose-response curve for each pharmacological compound, and then the area under the curve (AUC) was calculated using a trapezoidal method. […] The results of the repeated experiments were averaged to generate AUC values for each cell line for each compound.

SNU1 = SNU1 cells; 72 hours
Procedure: as §1, §2

NCC20 = NCC20 cells; 72 hours
Procedure: as §1, §2

MKN1 = MKN1 cells; 72 hours
Procedure: as §1, §2

SNU638 = SNU638 cells; 72 hours
Procedure: as §1, §2

Hs746T = Hs746T cells (SEM subtype); 72 hours
Procedure: as §1, §2

NCI_N87 = NCI_N87 cells; 72 hours
Procedure: as §1, §2

SNU668 = SNU668 cells (SEM subtype); 72 hours
Procedure: as §1, §2

SNU1750 = SNU1750 cells (SEM subtype); 72 hours
Procedure: as §1, §2

SNU484 = SNU484 cells (SEM subtype); 72 hours
Procedure: as §1, §2

YCC3 = YCC3 cells; 72 hours
Procedure: as §1, §2

SNU1967 = SNU1967 cells; 72 hours
Procedure: as §1, §2

SNU16 = SNU16 cells; 72 hours
Procedure: as §1, §2

OCUM1 = OCUM1 cells; 72 hours
Procedure: as §1, §2

SNU620 = SNU620 cells; 72 hours
Procedure: as §1, §2

NCC59 = NCC59 cells; 72 hours
Procedure: as §1, §2

SNU216 = SNU216 cells (non-SEM subtype); 72 hours
Procedure: as §1, §2

NCC19 = NCC19 cells; 72 hours
Procedure: as §1, §2

AGS = AGS cells (non-SEM subtype); 72 hours
Procedure: as §1, §2

MKN45 = MKN45 cells (non-SEM subtype); 72 hours
Procedure: as §1, §2

YCC11 = YCC11 cells (SEM subtype); 72 hours
Procedure: as §1, §2

MKN28 = MKN28 cells; 72 hours
Procedure: as §1, §2

KATO3 = KATO3 cells; 72 hours
Procedure: as §1, §2

YCC2 = YCC2 cells; 72 hours
Procedure: as §1, §2

SK4 = SK4 cells (SEM subtype); 72 hours
Procedure: as §1, §2

SNU719 = SNU719 cells; 72 hours
Procedure: as §1, §2

NCC24 = NCC24 cells; 72 hours
Procedure: as §1, §2

SNU601 = SNU601 cells; 72 hours
Procedure: as §1, §2

FU97 = system: FU97; design: Average Area Under the Viability Curve (AUC), AUC norm value: scale not given here; details: FU97 cells; 72 hours
Procedure: Cells cultured for cell-based drug assay were inoculated into a 96-well white optical plate (Corning) at 5×10^3 cells per well. After 24 hours after inoculation, a 2.5 MJT (primary screen) or a half-log 12-serial diluent (secondary screen) of the pharmacological compound contained in DMSO is added to the cells with a robot using a BioMek FXp liquid processor (Beckman) to add to the cells at 50 mM. The final drug concentration in the 5 ns range and the DMSO specification control (0.5%) were calculated. The cells were then further incubated at 37° C. in a 5% CO2 incubator for 72 hours prior to measuring cell viability using the extra-GLO assay kit (Promega). The luminescent properties were measured after 15 min incubation at room temperature using a plate stacker equipped with a plate stacker. The normalized viability for the DMSO-based control was measured to generate a cell line-specific 12-point dose-response curve for each pharmacological compound, and then the area under the curve (AUC) was calculated using a trapezoidal method.

SMILES | Average Area Under the Viability Curve (AUC), AUC norm value (MKN74) | Average Area Under the Viability Curve (AUC), AUC norm value (SNU1) | Average Area Under the Viability Curve (AUC), AUC norm value (NCC20) | Average Area Under the Viability Curve (AUC), AUC norm value (MKN1) | Average Area Under the Viability Curve (AUC), AUC norm value (SNU638) | Average Area Under the Viability Curve (AUC), AUC norm value (Hs746T) | Average Area Under the Viability Curve (AUC), AUC norm value (NCI_N87) | Average Area Under the Viability Curve (AUC), AUC norm value (SNU668) | Average Area Under the Viability Curve (AUC), AUC norm value (SNU1750) | Average Area Under the Viability Curve (AUC), AUC norm value (SNU484) | Average Area Under the Viability Curve (AUC), AUC norm value (YCC3) | Average Area Under the Viability Curve (AUC), AUC norm value (SNU1967) | Average Area Under the Viability Curve (AUC), AUC norm value (SNU16) | Average Area Under the Viability Curve (AUC), AUC norm value (OCUM1) | Average Area Under the Viability Curve (AUC), AUC norm value (SNU620) | Average Area Under the Viability Curve (AUC), AUC norm value (NCC59) | Average Area Under the Viability Curve (AUC), AUC norm value (SNU216) | Average Area Under the Viability Curve (AUC), AUC norm value (NCC19) | Average Area Under the Viability Curve (AUC), AUC norm value (AGS) | Average Area Under the Viability Curve (AUC), AUC norm value (MKN45) | also measured
COc1cccc2c1C(=O)c1c(O)c3c(c(O)c1C2=O)C[C@@](O)(C(C)=O)C[C@@H]3O[C@H]1C[C@H](N)[C@H](O)[C@H](C)O1 [Daunorubicin HCl (Daunomycin HCl), Daunorubicin HCl] | 1.215 | −0.7605 | −0.7736 | −0.2877 | −1.229 | 0.1484 | 4.5372 | −0.9142 | −0.7795 | −1.299 | 2.699 | −1.481 | −1.065 | 0.7066 | −1.239 | −0.5161 | 0.4507 | 0.9357 | −1.2278 | 2.949 | Average Area Under the Viability Curve (AUC), AUC norm value (YCC11): −1.742; Average Area Under the Viability Curve (AUC), AUC norm value (MKN28): 2.146; Average Area Under the Viability Curve (AUC), AUC norm value (KATO3): 6.288; Average Area Under the Viability Curve (AUC), AUC norm value (YCC2): 1.127; Average Area Under the Viability Curve (AUC), AUC norm value (SK4): 0; Average Area Under the Viability Curve (AUC), AUC norm value (SNU719): 3.416; Average Area Under the Viability Curve (AUC), AUC norm value (NCC24): −0.8801; Average Area Under the Viability Curve (AUC), AUC norm value (SNU601): 1.207; Average Area Under the Viability Curve (AUC), AUC norm value (FU97): 0.3965
CO[C@@H](C(=O)N1Cc2n[nH]c(NC(=O)c3ccc(N4CCN(C)CC4)cc3)c2C1)c1ccccc1 [Danusertib (PHA-739358), Danusertib] | 0.1321 | −2.274 | −4.082 | −0.8271 | −0.2145 | 1.565 | 2.122 | 1.049 | −2.3091 | −1.537 | 0.7949 | 0.03541 | −3.76 | 0.8742 | −2.616 | 1.632 | 0 | 1.885 | −1.034 | 2.103 | Average Area Under the Viability Curve (AUC), AUC norm value (YCC11): −1.357; Average Area Under the Viability Curve (AUC), AUC norm value (MKN28): 1.245; Average Area Under the Viability Curve (AUC), AUC norm value (KATO3): −0.3046; Average Area Under the Viability Curve (AUC), AUC norm value (YCC2): −0.9901; Average Area Under the Viability Curve (AUC), AUC norm value (SK4): −0.6677; Average Area Under the Viability Curve (AUC), AUC norm value (SNU719): 3.935; Average Area Under the Viability Curve (AUC), AUC norm value (NCC24): 0.9879; Average Area Under the Viability Curve (AUC), AUC norm value (SNU601): 2.877; Average Area Under the Viability Curve (AUC), AUC norm value (FU97): −2.488
CC(C)(C)c1ccc(C(O)CCCN2CCC(C(O)(c3ccccc3)c3ccccc3)CC2)cc1 (stereo not drawn) [Terfenadine] | −1.589 | 1.34 | −1.029 | −0.8127 | −0.8091 | −0.3246 | 1.465 | −0.5647 | −0.05758 | 0.06057 | 1.423 | −1.065 | 0 | 1.032 | 0.4918 | 2.3563 | 1.499 | 3.135 | −1.278 | −0.5441 | Average Area Under the Viability Curve (AUC), AUC norm value (YCC11): −0.996; Average Area Under the Viability Curve (AUC), AUC norm value (MKN28): −0.2901; Average Area Under the Viability Curve (AUC), AUC norm value (KATO3): 0.4901; Average Area Under the Viability Curve (AUC), AUC norm value (YCC2): 0.4862; Average Area Under the Viability Curve (AUC), AUC norm value (SK4): −0.8713; Average Area Under the Viability Curve (AUC), AUC norm value (SNU719): 1.059; Average Area Under the Viability Curve (AUC), AUC norm value (NCC24): −2.355; Average Area Under the Viability Curve (AUC), AUC norm value (SNU601): 2.641; Average Area Under the Viability Curve (AUC), AUC norm value (FU97): 1.163
